Measurements: paper PMC7408493, “Implication of Opioid Receptors in the Antihypertensive Effect of a Novel Chicken Foot-Derived Peptide” (Biomolecules, 2020)
Bridge positions count the residues as written; N and C are the ends. Ends that are not written are not given here. Peptide text beside a SMILES is read from it. I, II: the chains in the order shown. * marks the point of attachment. X1 = NC(=O)CC[C@H](NC(=O)[C@@H](N)CS*)C(=O)N[C@@H](CCC(=O)O)C(=O)O

Key:
Caco-2 cell monolayers = assay: Transepithelial transport through Caco-2 monolayer; format: in vitro ADME; settings: 21 days, TEER > 200 Ω/cm^2, gastric digest G60 added to apical chamber, AP to BL, 1 h, 37 °C, HBSS, content in basolateral chamber in comparison to apical chamber, UHPLC-HRMS, triplicates
Procedure: Caco-2 cells were obtained from Sigma-Aldrich and were grown Dulbecco’s modified minimum essential medium (DMEM), supplemented with 20% fetal bovine serum (FBS), […] L-glutamine, 100 U/mL penicillin and 100 μg/mL streptomycin at 37 °C in and 5% CO2. Cells were seeded onto Transwell inserts permeable membrane support (0.4 µm pore, 24 mm diameter, 4.7 cm^2 grown surface from Merck Co., Bedford, MA, USA) placed in six-well plates. The seeding density was 12,000 cell/cm^2. The medium was replaced every 2–3 days and cells were growing for 21 days. On the 21st day of the procedure, the integrity of the Caco-2 monolayer was assessed by the measurement of transepithelial electrical resistance (TEER) using a Millicell ERS-2 voltammeter (EMD Millipore, Darmstadt, Germany) selecting the ones with TEER values higher than 200 Ω/cm^2.
For the transport study, Caco-2 cells, maintained in DMEM, were gently rinsed with Hank’s balanced salt solution (HBSS) and equilibrated for 20 min at 37 °C prior to the transport study. Then, it was evaluated the transepithelial transport of the peptide […] (1 mM) dissolved in HBSS and the digests obtained in the in vitro simulated digestion (G60 and D60). […] or the peptide digests G60 and D60 were added to the apical (AP) chamber and were incubated for 1 h at 37 °C. After this time, triplicates of the AP chamber content and the basolateral (BL) chamber content were taken and stored at −80 °C until ultra-high performance liquid chromatography-high resolution mass spectrometry (UHPLC-HRMS) analyses.
(§1) Samples obtained from in vitro peptide simulated digestion and Caco-2 monolayers were diluted 10 times with water (0.1% FA) and centrifuged (15,000 rpm, 15 min, 4 °C). Supernatants were directly analyzed by UHPLC-HRMS to avoid the loss of polar peptide fragments. Extensive clean-up or pre-concentration procedures were not necessary due to the high concentration of peptide and low matrix complexity than plasma samples.
(§2) The obtained purified solutions from plasma and peptide digests G60 and D60 and from AP and BL chambers in Caco-2 experiment were analyzed using a UHPLC 1290 Infinity II Series coupled to a QqQ 6490 Series (Agilent Technologies, Santa Clara, CA, USA) for tandem mass experiments or a qTOF 6550 Series (Agilent Technologies) for high-resolution mass spectrometry experiments. Chromatographic separation of peptide or their fragments were performed using a Kinetex 2.6 µm EVO C18 column (150 × 2.1 mm, […]) from (Phenomenex, Torrance, USA) as stationary phase and water containing 0.1% formic acid (solvent A) and acetonitrile (solvent B) as mobile phase. The separation was performed in gradient elution as follows: isocratic; 0–0.5 min, 2 % B; 0.5–1 min, 2–6% B; 1–5 min, 6–15% B; 5–6 min, 15–35% B; 6–10 min, 35–98% B; 10–12 min, 98% B isocratic; 12–12.10, 98–2% B. For all runs, 10 μL of the sample (4 °C) was injected, and the flow rate was 0.350 mL/min and the column temperature was 25 °C.
(§3) For in vitro simulated digestion experiments and Caco-2 monolayer samples, qTOF instrument was used to investigate the presence of unknown peptide fragments and previously in silico predicted peptide fragments by means of its accurate mass. Peptide and its fragments were semi-quantified using the chromatographic peak area observed in the extracted ion chromatograms using a 20 ppm mass window.

porcine pepsin = molecular target: T1, porcine pepsin (Sus scrofa, UniProt P00791); assay: In vitro simulated gastric digestion (G60); format: in vitro ADME; settings: simulated gastric fluid 35 mM NaCl pH 2, porcine pepsin enzyme/substrate 1:20 w/w, 37 °C, 60 min; UHPLC-HRMS extracted ion chromatogram, 20 ppm window, semi-quantified; triplicate aliquots
T1 construct: purchased Sigma-Aldrich (Madrid, Spain)
Procedure: For the in vitro simulated peptide GI digestion, a two-stage hydrolysis process was carried out according to Martos et al.. […] was dissolved in simulated gastric fluid (35 mM NaCl at pH 2 for 15 min) and posteriorly subjected to digestion by porcine pepsin (E.C. 3.4.23.1, 3440 units/mg) at an enzyme/substrate ratio of 1: 20 w/w at 37 °C for 60 min. Gastric digestion with pepsin was stopped by adding 1 M NaHCO3 and pH was adjusted to 7.0 with NaOH 1 M (final protein concentration of 5 mg/mL). Aliquots of this gastric digest were collected (G60) and stored at −20 °C until analysis. Duodenal digestions were performed by using, as the starting material, the obtained gastric digests, with the addition of 1 M CaCl2, 0.25 M bis-Tris pH 6.5, 0.25 M bis-Tris pH 6.5, and a 0.125 M bile salts mixture containing equimolar quantities of sodium taurocholate and glycodeoxycholic acid. Posteriorly, the duodenal enzymes trypsin (EC 232-650-8, 10100 BAEE units/mg protein), α-chymotrypsin (EC 232-671-2; 55 units/mg protein), porcine pancreatic lipase (EC 232-619-9) and colipase (EC 259-490-1), prepared in 35 mM NaCl adjusted to pH 7, were added to the solution. Duodenal digestion was carried out at pH 7, 37 °C during 60 (D60). Then, enzymes were inactivated by heating at 95 °C for 10 min in a water bath, followed by cooling to room temperature. Triplicates of aliquots at each time point were collected and stored at −20 °C until analysis.
as §1, §2, §3

[1] = peptides derived from Manchego cheese; ref Ruiz et al.; cited from earlier work
Procedure: Simulated in vitro gastrointestinal digestion model was used to investigate the releasing of the amino acid sequences previously predicted in the in silico approach. The peptide was sequentially digested under physiological conditions and the identification of amino acid sequences in samples obtained from both gastric and intestinal digestion were performed by UHPLC-HRMS (Table 2). When the results obtained by the in silico approach and in vitro approach were compared, it was observed that only two of the fourteen predicted peptide fragments from the in silico approach were identified in the i ...

opioid receptors = settings: non-selective opioid receptor antagonist Naloxone; cited from earlier work
Text: However, some bioactive peptides might mediate their physiological effects through its binding to receptors present in the intestinal wall, implying that their absorption is not required. […] These opioid-like peptides are atypical opioid ligands that are released from the hydrolysis of food and present N-terminal sequences that are different fro ...

[2] = test system: spontaneously hypertensive rats; assay: Systolic blood pressure in SHR with or without Naloxone (tail-cuff); format: in vivo, rat; settings: 50 mg/kg bw oral, Naloxone 3 mg/kg bw or saline, 6 h post-administration, n = 6
Procedure: Male, 17–20-week-old, SHR, weighing 286 ± 4 g were used in this study. All these animals were obtained from Charles River Laboratories Spain. The SHR were housed at a temperature of 23 °C with 12 h light/dark cycles and had free access to tap water and a standard diet (A04 Panlab). Before the experiments, rats were submitted to a training period of 10 days to guarantee the reliability of the measurements. To evaluate if […] presented an opioid-mediated effect, SHR received via subcutaneous 100 µL of Naloxone (3 mg/kg bw), and afterward a single oral dose (1 mL) of […] (10 mg/kg bw). Additionally, water, Captopril (50 mg/kg bw), known antihypertensive drug, and chicken foot hydrolysate Hpp11 (55 mg/kg bw), were administered as controls. Captopril and Hpp11 can inhibit ACE in vivo. […] Systolic blood pressure (SBP) was recorded in the rats by the tail-cuff method before and 2, 4, and 6 h post-administration. […]
Results from transepithelial transport studies are presented as means ± standard error means (SEM). […] The results for the experiments investigating the participation of opioid receptors in the […], Captopril and Hpp11 antihypertensive effect were expressed as the mean ± SEM of six animals per group (heterogeneity was tested by Levene’s test) and were analyzed by one-way ANOVA (Tukey’s test) using IBM SPSS Statistics 20.0 software. […]

Caco-2 monolayer = settings: cited from earlier work
Procedure: To verify the lack of absorption of the peptide or their resultant fragments in the GI tract an additional study using Caco-2 cells was carried out. The native peptide […] and the samples collected after the simulated gastric and duodenal digestions (G60 and D60, respectively) were incubated in Caco-2 monolayer for 1 h. The peptide and its resultant fragments were identified in the AP chamber from G60 samples, however, only 0.10–0.25% were transported to the BL chamber (Table 3). Therefore, the presence of native […] in the AP chamber after 1 h of incubation and the absence of the ...

T1 sequence (P00791 60-385): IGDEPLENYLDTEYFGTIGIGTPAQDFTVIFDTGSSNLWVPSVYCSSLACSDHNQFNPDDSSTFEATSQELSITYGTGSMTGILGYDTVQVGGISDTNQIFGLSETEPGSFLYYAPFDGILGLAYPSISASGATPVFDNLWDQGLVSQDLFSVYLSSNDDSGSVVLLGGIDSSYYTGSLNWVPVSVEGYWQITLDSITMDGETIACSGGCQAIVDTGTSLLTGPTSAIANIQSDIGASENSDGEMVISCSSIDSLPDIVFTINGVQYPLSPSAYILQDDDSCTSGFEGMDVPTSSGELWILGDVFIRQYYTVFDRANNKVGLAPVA

Compound	G60 % Transport (Caco-2 cell monolayers)	Area G60 (chromatographic peak area) (porcine pepsin)	further results
CC(C)[C@H](NC(=O)[C@H](C)N)C(=O)N[C@@H](Cc1ccccc1)C(=O)N[C@@H](CCC(N)=O)C(=O)N[C@@H](Cc1c[nH]cn1)C(=O)N[C@@H](CC(N)=O)C(=O)N[C@@H](CSSC[C@H](NC(=O)[C@H](CC(N)=O)NC(=O)[C@H](Cc1c[nH]cn1)NC(=O)[C@H](CCC(N)=O)NC(=O)[C@H](Cc1ccccc1)NC(=O)[C@@H](NC(=O)[C@H](C)N)C(C)C)C(=O)N[C@@H](CCC(N)=O)C(=O)N[C@@H](CCC(=O)O)C(=O)O)C(=O)N[C@@H](CCC(N)=O)C(=O)N[C@@H](CCC(=O)O)C(=O)O (I: H-AVFQHNCQE-OH / II: H-AVFQHNCQE-OH; disulfide I:7-II:7)	0.11%	605,812	
AVFQH [AVFQH]	0.17%	155,533	
VRYL [peptide derived from Manchego cheese]			Resistance to GI digestion [1]: resistance to GI digestion
CC(C)[C@H](NC(=O)[C@H](C)N)C(=O)N[C@@H](Cc1ccccc1)C(=O)O [AVF] (H-Ala-Val-Phe-OH)	0.15%	200,712	
AVFQHNC [AVFQHNC]	0.60%	220,051	
KKYNVPQL [peptide derived from Manchego cheese]			Resistance to GI digestion [1]: resistance to GI digestion
YGLF [α-lactorphin, milk-derived opioid-like antihypertensive peptide]			BP-lowering effect after administration of Naloxone (opioid receptors): abolished
QHNCQE [QHNCQE]		288,536	
C[C@H](CS)C(=O)N1CCC[C@H]1C(=O)O [Captopril]			BP reduction in naloxone-treated and saline-treated rats [2]: able to reduce BP in rats treated with Naloxone and in rats treated with saline
RADHP [antihypertensive peptide reported by Miguel et al]			Transport through Caco-2 monolayer (Caco-2 monolayer): lack of transported through Caco-2 monolayer
CC(C)[C@H](NC(=O)[C@H](C)N)C(=O)N[C@@H](Cc1ccccc1)C(=O)N[C@@H](CCC(N)=O)C(=O)N[C@@H](Cc1c[nH]cn1)C(=O)N[C@@H](CC(N)=O)C(=O)N[C@@H](CSSC[C@H](NC(=O)[C@H](CC(N)=O)NC(=O)[C@H](Cc1c[nH]cn1)NC(=O)[C@@H](N)CCC(N)=O)C(=O)N[C@@H](CCC(N)=O)C(=O)N[C@@H](CCC(=O)O)C(=O)O)C(=O)N[C@@H](CCC(N)=O)C(=O)N[C@@H](CCC(=O)O)C(=O)O (I: H-AVFQHNCQE-OH / II: H-QHNCQE-OH; disulfide I:7-II:4)	0.15%	136,056	
AVFQHN [AVFQHN]	0.10%	685,482	
CC(C)[C@H](NC(=O)[C@H](C)N)C(=O)N[C@@H](Cc1ccccc1)C(=O)N[C@@H](CCC(N)=O)C(=O)N[C@@H](Cc1c[nH]cn1)C(=O)N[C@@H](CC(N)=O)C(=O)N[C@@H](CSSC[C@H](N)C(=O)N[C@@H](CCC(N)=O)C(=O)N[C@@H](CCC(=O)O)C(=O)O)C(=O)N[C@@H](CCC(N)=O)C(=O)N[C@@H](CCC(=O)O)C(=O)O (H-AVFQHNC(X1)QE-OH)	0.15%	93,694	
